Data set [1] addresses T1, Transient receptor potential cation channel subfamily M member 2 (Homo sapiens, UniProt O94759). The experiment in a line: Inhibition of human TRPM2 expressed in HEK293T cells cotransfected with GFP assessed as reduction in ADPR-induced current at 10 uM by whole cell patch-clamp method relative to control. It is filed as cell-based. For orientation: The patch-clamp technique gives a direct electrical read-out from membranes.

Data set [2] has as its target T1, Transient receptor potential cation channel subfamily M member 2. The experiment in a line: Inhibition of human TRPM2 expressed in HEK293T cells cotransfected with GFP assessed as reduction in ADPR-induced current at 30 uM by whole cell patch-clamp method relative to control. The format is cell-based.
For data set [3] the target is unchanged. The experiment in a line: Inhibition of human TRPM2 expressed in HEK293T cells cotransfected with GFP assessed as reduction in ADPR-induced current by whole cell patch-clamp method. It is filed as cell-based.
Data set [4] addresses Transient receptor potential cation channel subfamily M member 8 (Rattus norvegicus) (UniProt Q8R455). The experiment in a line: Inhibition of rat TRPM8 expressed in HEK293T cells cotransfected with GFP assessed as inhibition of […]-induced current at 30 uM by whole cell patch-clamp method relative to control. It is filed as cell-based.
The target in data set [5] is Transient receptor potential cation channel subfamily V member 1 (Homo sapiens) (UniProt Q8NER1). Briefly: Inhibition of TRPV1 (unknown origin) assessed as inhibition of capsaicin-induced current at 30 uM by whole cell patch-clamp method relative to control.
The subject of data set [6] is SH-SY5Y. The experiment in a line: Neuroprotection against H202-induced cell death in human SH-SY5Y cells assessed as increase in cell viability at 100 uM after 24 hrs by CCK8 assay. The format is functional, cell-based. (Formazan colour is commonly taken as a measure of viable cells.)
In data set [7] the test system is SH-SY5Y. Briefly: Neuroprotection against H202-induced cell death in TRPM2 knockdown human SH-SY5Y cells assessed as increase in cell viability at 100 uM after 24 hrs by CCK8 assay. The format is functional, cell-based.
Data set [8] deals with SH-SY5Y. Briefly: Cytotoxicity against human SH-SY5Y cells at 30 uM measured after 24 hrs by CCK-8 assay. The format is cell-based.

In general, inhibition refers to the share of the control response that was lost under treatment. The term IC50 denotes the concentration that gives 50% inhibition.

Activity calls are given as the source filed them. No cut-off for these calls is given here.

T1 sequence (O94759 whole entry): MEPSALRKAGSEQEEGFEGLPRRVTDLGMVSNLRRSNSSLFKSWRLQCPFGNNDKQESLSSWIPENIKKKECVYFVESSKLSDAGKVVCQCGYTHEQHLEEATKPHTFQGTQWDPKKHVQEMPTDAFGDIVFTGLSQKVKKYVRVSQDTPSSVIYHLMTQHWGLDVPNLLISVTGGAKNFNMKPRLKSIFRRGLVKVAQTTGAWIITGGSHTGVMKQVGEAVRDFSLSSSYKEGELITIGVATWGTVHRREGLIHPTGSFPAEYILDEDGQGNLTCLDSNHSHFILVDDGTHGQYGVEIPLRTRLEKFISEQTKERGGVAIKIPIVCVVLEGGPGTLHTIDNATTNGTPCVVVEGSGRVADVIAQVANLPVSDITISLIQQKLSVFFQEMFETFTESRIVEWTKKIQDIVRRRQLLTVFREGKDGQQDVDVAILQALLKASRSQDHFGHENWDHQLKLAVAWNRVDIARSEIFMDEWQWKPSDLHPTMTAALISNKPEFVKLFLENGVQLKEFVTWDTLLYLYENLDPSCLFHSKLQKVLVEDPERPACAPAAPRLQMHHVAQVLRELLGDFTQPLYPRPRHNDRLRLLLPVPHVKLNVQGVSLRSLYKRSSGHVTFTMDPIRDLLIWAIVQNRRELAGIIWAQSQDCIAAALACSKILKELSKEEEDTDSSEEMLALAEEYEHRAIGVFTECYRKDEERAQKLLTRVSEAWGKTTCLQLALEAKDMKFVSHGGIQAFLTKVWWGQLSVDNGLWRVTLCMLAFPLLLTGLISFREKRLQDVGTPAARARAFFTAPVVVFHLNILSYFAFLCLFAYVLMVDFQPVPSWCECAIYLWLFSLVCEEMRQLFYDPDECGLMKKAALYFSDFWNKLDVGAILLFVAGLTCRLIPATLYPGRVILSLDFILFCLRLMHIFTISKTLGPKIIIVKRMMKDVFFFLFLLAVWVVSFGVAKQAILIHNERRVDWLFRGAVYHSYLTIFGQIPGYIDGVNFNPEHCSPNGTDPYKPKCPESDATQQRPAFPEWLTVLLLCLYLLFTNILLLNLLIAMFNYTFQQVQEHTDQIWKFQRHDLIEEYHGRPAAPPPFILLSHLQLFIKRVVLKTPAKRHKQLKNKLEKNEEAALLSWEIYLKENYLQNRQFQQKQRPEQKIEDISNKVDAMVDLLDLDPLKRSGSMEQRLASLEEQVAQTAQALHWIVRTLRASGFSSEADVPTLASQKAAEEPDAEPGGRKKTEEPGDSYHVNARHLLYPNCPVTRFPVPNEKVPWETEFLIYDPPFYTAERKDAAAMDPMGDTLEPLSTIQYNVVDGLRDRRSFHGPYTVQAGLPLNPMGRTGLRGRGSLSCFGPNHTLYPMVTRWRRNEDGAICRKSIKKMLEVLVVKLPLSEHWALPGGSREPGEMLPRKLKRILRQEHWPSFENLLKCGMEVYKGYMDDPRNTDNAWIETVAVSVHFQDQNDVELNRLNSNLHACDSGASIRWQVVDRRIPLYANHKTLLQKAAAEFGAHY
Chain of Transient receptor potential cation channel subfamily V member 1 (Homo sapiens) (Q8NER1 whole entry): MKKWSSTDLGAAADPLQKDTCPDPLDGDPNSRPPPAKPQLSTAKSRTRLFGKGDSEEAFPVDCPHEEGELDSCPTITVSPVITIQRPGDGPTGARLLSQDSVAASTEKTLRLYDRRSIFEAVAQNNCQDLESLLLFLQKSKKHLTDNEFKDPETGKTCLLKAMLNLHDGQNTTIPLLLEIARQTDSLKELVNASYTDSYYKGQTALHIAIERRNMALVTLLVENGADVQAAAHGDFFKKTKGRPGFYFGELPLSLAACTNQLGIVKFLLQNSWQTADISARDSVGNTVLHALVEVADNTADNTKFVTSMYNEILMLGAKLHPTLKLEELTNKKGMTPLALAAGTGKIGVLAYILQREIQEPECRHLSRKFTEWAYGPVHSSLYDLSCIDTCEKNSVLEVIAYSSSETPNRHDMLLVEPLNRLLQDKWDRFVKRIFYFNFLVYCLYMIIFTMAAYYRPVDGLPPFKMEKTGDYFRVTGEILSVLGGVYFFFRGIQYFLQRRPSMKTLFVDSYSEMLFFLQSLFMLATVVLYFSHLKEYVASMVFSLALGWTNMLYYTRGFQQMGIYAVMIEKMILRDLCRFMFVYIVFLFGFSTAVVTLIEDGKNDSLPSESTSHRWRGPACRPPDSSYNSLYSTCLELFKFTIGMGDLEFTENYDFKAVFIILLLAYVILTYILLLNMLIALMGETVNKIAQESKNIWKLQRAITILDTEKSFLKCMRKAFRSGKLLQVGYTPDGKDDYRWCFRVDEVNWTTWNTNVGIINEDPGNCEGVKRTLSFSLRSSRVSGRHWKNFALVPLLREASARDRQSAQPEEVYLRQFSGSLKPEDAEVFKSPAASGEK
Chain of Transient receptor potential cation channel subfamily M member 8 (Rattus norvegicus) (Q8R455 whole entry, looked up): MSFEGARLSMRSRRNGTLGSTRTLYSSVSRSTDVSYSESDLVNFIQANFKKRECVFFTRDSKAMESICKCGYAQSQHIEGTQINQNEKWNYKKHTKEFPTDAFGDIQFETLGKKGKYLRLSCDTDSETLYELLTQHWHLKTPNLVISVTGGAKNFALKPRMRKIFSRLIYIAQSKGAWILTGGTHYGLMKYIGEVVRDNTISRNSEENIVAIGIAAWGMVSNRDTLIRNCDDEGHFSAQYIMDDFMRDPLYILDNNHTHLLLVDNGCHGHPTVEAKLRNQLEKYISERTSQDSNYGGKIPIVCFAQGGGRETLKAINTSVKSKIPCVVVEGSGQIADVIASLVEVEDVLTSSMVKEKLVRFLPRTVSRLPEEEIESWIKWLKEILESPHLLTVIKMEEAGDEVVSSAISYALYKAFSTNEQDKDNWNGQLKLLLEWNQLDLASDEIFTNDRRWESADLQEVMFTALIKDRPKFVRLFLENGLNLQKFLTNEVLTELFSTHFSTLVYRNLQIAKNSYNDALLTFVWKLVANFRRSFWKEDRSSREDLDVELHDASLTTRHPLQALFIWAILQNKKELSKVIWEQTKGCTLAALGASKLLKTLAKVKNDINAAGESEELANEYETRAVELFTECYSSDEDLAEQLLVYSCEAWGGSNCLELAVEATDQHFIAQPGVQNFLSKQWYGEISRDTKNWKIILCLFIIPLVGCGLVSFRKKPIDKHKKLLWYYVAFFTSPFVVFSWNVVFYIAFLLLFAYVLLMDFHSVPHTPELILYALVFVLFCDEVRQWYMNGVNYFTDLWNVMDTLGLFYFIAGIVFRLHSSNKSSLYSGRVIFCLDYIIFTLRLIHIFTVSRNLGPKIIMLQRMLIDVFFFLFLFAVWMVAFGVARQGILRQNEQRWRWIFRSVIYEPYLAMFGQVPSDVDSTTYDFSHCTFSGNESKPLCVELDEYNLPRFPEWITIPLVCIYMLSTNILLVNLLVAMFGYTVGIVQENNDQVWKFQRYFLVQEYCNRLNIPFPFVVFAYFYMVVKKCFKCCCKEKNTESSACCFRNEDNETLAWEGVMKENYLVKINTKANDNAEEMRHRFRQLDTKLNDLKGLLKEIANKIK

Turning to `CCN(CC)CCn1c2ccccc2n2c(C(C)=O)c(C)nc12`, in data set [1], the inhibition was 50%.

For `CCN(CC)CCn1c2ccccc2n2c(C(=O)c3ccc(-c4ccccc4)cc3)c(C)nc12`, the inhibition in data set [2] is 90%; in data set [4], 26%; in data set [5] it was 40%. For the same molecule, in data set [3], the IC50 worked out at 6.2 µM. Further, the outcome with SH-SY5Y [6] was Active. The outcome with SH-SY5Y [7] was inactive. Also, in the data set with SH-SY5Y [8], the Activity result is listed as “Non-Toxic”.

As for `CCN(CC)CCn1c2ccccc2n2c(C(=O)c3cc4ccccc4o3)c(C)nc12`, the figures for the inhibition in data set [2], in data set [4] and in data set [5] were 90%, 36% and 22%, respectively. In addition, the IC50 in data set [3] amounted to 8.1 µM. The outcome with SH-SY5Y [6] was Active. In the data set on SH-SY5Y [7], the outcome was inactive. The Activity result in the data set with SH-SY5Y [8] is “Non-Toxic”.

These data come from ChEMBL document CHEMBL4842361, “Design, synthesis and biological activities of benzo[d]imidazo[1,2-a]imidazole derivatives as TRPM2-specfic inhibitors” (Eur J Med Chem, 2021).
